From US4226610A, “Herbicidal compounds, preparation thereof and herbicides containing the same” (Meiji Selka Kaisha, Ltd., priority 1978, dated 1980)
Where a name gives a salt, the structure may show the parent alone.

Legend:
oak = assay: Experiment 3 foliar application to naturally growing shrubs; format: in vivo, Quercus serrata Thunb; details: after 3 months
Text: (§1) The detail of the assessment made in the following Experiments of the invention was as follows:
(§2) Four months after treatment, evaluation was made for inhibition of reproduction expressed in terms of symbols ranging from (-) to (+++) where (-) means no reproduction, namely complete suppression of reproduction, (±) remarkable suppression of reproduction; (+) considerable suppression of reproduction; (++) medium supprestion of reproduction; and (+++) no suppression of reproduction.
(§3) The compounds of the invention and other compounds listed in Table 5. were diluted to prescribed concentrations and sprayed onto naturally growing shrubs by foliar application in an amount of 150 liter per 10 are.
(§4) 0.1% of octylphenyl polyoxyethanol was added as the surfactant. The killing index (0, no effect; 5, death) after 1 month and 3 months, and the reproduction-inhibiting effect (-, no reproduction; +++, maximum reproduction) after 3 months were determined.

azumanezasa = assay: Experiment 1 foliar application to naturally growing weeds; format: in vivo, Pleioblastus Chino Makino; details: 4 months
Text: as §1, §2
(§5) The compounds of the invention and other compounds for comparison listed in Table 3 were diluted to prescribed concentrations and sprayed to naturally growing weeds by foliar application in an amount of 150 liter per 10 are.
(§6) 0.1% of octylphenyl polyoxyethanol was added as a surfactant.
(§7) The killing index (0, no effect, 5, death) after 21 days, and the reproduction-inhibiting effect (-, no reproduction; +++, maximum reproduction) after 2 months (manna grass and cockspar grass) and 4 months (other weeds) were determined.

Japanese prickly ash = assay: Experiment 3 foliar application to naturally growing shrubs; format: in vivo, Xanthoxylum piperitum DC.; details: after 3 months
Text: as §1, §2, §3, §4

eulalia = assay: Experiment 2 foliar application in Japanese cypress afforested land; format: in vivo, Miscanthus sinensis Andress.; design: key: 0 = no effect, 5 = death; details: 0.125%; after 30 days
Method: as §1
(§8) The compounds of the invention and other compounds listed in Table 4. were diluted to prescribed concentrations and sprayed to shrubs by foliar application in a Japanese cypress afforested land in an amount of 150 liter per 10 are.
(§9) After 30 days and 3 months, the killing index (0, no effect; 5, death) was determined.
(§10) The heights of plants were 50-70 cm. for Japanese cypress, about 50 cm. for chestnut, 50-90 cm. for miyakozasa, about 100 cm. for eulalia and 70-100 cm. for kumaichigo, respectively.

Japanese bush cranberry = assay: Experiment 3 foliar application to naturally growing shrubs; format: in vivo, Viburnum dilatatum Thunb.; details: for Reproduction-inhibiting: after 3 months
Text: as §1, §2, §3, §4

kumaichigo = assay: Experiment 2 foliar application in Japanese cypress afforested land; format: in vivo, Rubus crataegifolius Bunge; details: after 30 days
Method: as §1, §8, §9, §10

warunasubi = assay: Experiment 1 foliar application to naturally growing weeds; format: in vivo, Solanum carolinensis L.; details: 4 months
Text: as §1, §2, §5, §6, §7

kiichigo = assay: Experiment 3 foliar application to naturally growing shrubs; format: in vivo, Rubus palmatsu Thunb. forma coptophyllus Makino; details: for Reproduction-inhibiting: after 3 months
Text: as §1, §2, §3, §4

purple nutsedge = assay: Experiment 1 foliar application to naturally growing weeds; format: in vivo, Cyperus rotundus L.; details: 4 months
Text: as §1, §2, §5, §6, §7

yabugarashi = assay: as above; format: in vivo, Cayratia japonica Houtt.; details: 4 months
Text: as §1, §2, §5, §6, §7

manna grass = assay: as above; format: in vivo, Digitaria adsceudes Henr.; details: 2 months
Text: as §1, §2, §5, §6, §7

hedge bindweed = assay: as above; format: in vivo, Calystegis hederacea Wall.; details: 4 months
Text: as §1, §2, §5, §6, §7

chigaya = assay: as above; format: in vivo, Imperata cylindrica Beauv.; details: 4 months
Text: as §1, §2, §5, §6, §7

white clover = assay: as above; format: in vivo, Trifolium repens L.; details: for Reproduction-inhibiting effect: 4 months; for Killing index of Upperground parts: 21 days
Text: as §1, §2, §5, §6, §7

yamazakura = assay: Experiment 3 foliar application to naturally growing shrubs; format: in vivo, Prunus donarium Sieb. var. spontanae Makino; details: after 3 months
Text: as §1, §2, §3, §4

cockspar grass = assay: Experiment 1 foliar application to naturally growing weeds; format: in vivo, Echinochloa Crusgalli P. Beauv.; details: 2 months
Text: as §1, §2, §5, §6, §7

lace shrub = assay: Experiment 3 foliar application to naturally growing shrubs; format: in vivo, Stephanandra incisa Zabel; details: for Reproduction-inhibiting: after 3 months
Text: as §1, §2, §3, §4

torch azalea = assay: as above; format: in vivo, Rhododendoron Kaempferi Planch.; details: after 3 months
Text: as §1, §2, §3, §4

water hyacinth = assay: Experiment 5 foliar application to water hyacinths; format: in vivo, Eichhornia crassipes Solms; design: key to Killing index: 0 = no effect, 5 = death; details: for Reproduction-inhibiting effect: 3 months
Text: as §1, §2
Water was placed in 20 cm.×30 cm. plastic vessels and a liquid fertilizer was added thereto. Two water hyacinths were floated in each vessel.
0.1 or 0.2% aqueous solutions of each of the compounds of the invention listed in Table 7 were sprayed by foliar application in an amount of 100 liter per 10 are. As a surfactant, 0.1% of octylphenyl polyoxyethanol was added.
The killing index (0, no effect; 5, death) after 21 days and 3 months, and the reproduction-inhibiting effect (-, no reproduction; +++, maximum reproduction) after 3 months were determined.

In the case of `CP(=O)(O)CC[C@H](N)C(=O)O` [L-2-Amino-4-methylphosphinobutanoic acid monodiethanolammoni] [L-2-Amino-4-methylphosphinobutanoic acid monodiethanolammonium salt], the Reproduction-inhibiting (oak; 0.05%) is reported as “++”, the Reproduction-inhibiting (oak; 0.1%) is reported as “-” and the Reproduction-inhibiting (oak; 0.2%) is reported as “-”. For the same molecule, the Reproduction-inhibiting effect (azumanezasa; 0.05%) was “++”, the Reproduction-inhibiting effect (azumanezasa; 0.1%) was “-” and the Reproduction-inhibiting effect (azumanezasa; 0.2%) was “-”. The Reproduction-inhibiting (Japanese prickly ash; 0.05%) was “+++”, the Killing index (Japanese prickly ash; 0.1%) was 4.5 and the Reproduction-inhibiting (Japanese prickly ash; 0.1%) was “±”. For the same molecule, the Reproduction-inhibiting (Japanese prickly ash; 0.2%) was “-”, the Killing index (eulalia) was 3.5 and the Reproduction-inhibiting (Japanese bush cranberry; 0.05%) was “+++”. For the same molecule, the Reproduction-inhibiting (Japanese bush cranberry; 0.1%) was “++”, the Killing index (Japanese bush cranberry; 0.1%, after 30 days) was 4.5 and the Reproduction-inhibiting (Japanese bush cranberry; 0.2%) was “-”. The Killing index (kumaichigo; 0.125%) was 4.5, the Reproduction-inhibiting effect (warunasubi; 0.05%) was “+++” and the Reproduction-inhibiting effect (warunasubi; 0.1%) was “+”. The Reproduction-inhibiting effect (warunasubi; 0.2%) was “±”, the Reproduction-inhibiting (kiichigo; 0.05%) was “++” and the Killing index (kiichigo; 0.05%, after 30 days) was 3.5. For the same molecule, the Reproduction-inhibiting (kiichigo; 0.1%) was “-”, the Reproduction-inhibiting (kiichigo; 0.2%) was “-” and the Reproduction-inhibiting effect (purple nutsedge; 0.05%) was “+++”. The Reproduction-inhibiting effect (purple nutsedge; 0.1%) was “+”, the Reproduction-inhibiting effect (purple nutsedge; 0.2%) was “±” and the Reproduction-inhibiting effect (yabugarashi; 0.05%) was “++”. The Reproduction-inhibiting effect (yabugarashi; 0.1%) was “+”, the Reproduction-inhibiting effect (yabugarashi; 0.2%) was “±” and the Reproduction-inhibiting effect (manna grass; 0.05%) was “++”. The Reproduction-inhibiting effect (manna grass; 0.1%) was “-”, the Reproduction-inhibiting effect (manna grass; 0.2%) was “-” and the Reproduction-inhibiting effect (hedge bindweed; 0.05%) was “+++”. The Reproduction-inhibiting effect (hedge bindweed; 0.1%) was “++”, the Reproduction-inhibiting effect (hedge bindweed; 0.2%) was “+” and the Reproduction-inhibiting effect (chigaya; 0.05%) was “++”. The Reproduction-inhibiting effect (chigaya; 0.1%) was “-”, the Reproduction-inhibiting effect (chigaya; 0.2%) was “-” and the Reproduction-inhibiting effect (white clover; 0.05%) was “+++”. The Reproduction-inhibiting effect (white clover; 0.1%) was “-”, the Reproduction-inhibiting effect (white clover; 0.2%) was “-” and the Reproduction-inhibiting (yamazakura; 0.05%) was “++”. For the same molecule, the Reproduction-inhibiting (yamazakura; 0.1%) was “-”, the Reproduction-inhibiting (yamazakura; 0.2%) was “-” and the Reproduction-inhibiting effect (cockspar grass; 0.05%) was “++”. For the same molecule, the Reproduction-inhibiting effect (cockspar grass; 0.1%) was “-”, the Reproduction-inhibiting effect (cockspar grass; 0.2%) was “-” and the Reproduction-inhibiting (lace shrub; 0.05%) was “++”. For the same molecule, the Killing index (lace shrub; 0.05%, after 30 days) was 3.5, the Reproduction-inhibiting (lace shrub; 0.1%) was “-” and the Reproduction-inhibiting (lace shrub; 0.2%) was “-”. The Reproduction-inhibiting (torch azalea; 0.05%) was “+++”, the Reproduction-inhibiting (torch azalea; 0.1%) was “-” and the Reproduction-inhibiting (torch azalea; 0.2%) was “-”.
For `C[C@H](NC(=O)[C@H](C)NC(=O)[C@@H](N)CCP(C)(=O)O)C(=O)O` [monosodium salt], the Reproduction-inhibiting (oak; 0.05%, monosodium salt) was “+++”, the Reproduction-inhibiting (oak; 0.1%, monosodium salt) was “++” and the Reproduction-inhibiting (oak; 0.2%) was “-”. For the same molecule, the Reproduction-inhibiting effect (azumanezasa; 0.05%, monosodium salt) was “+++”, the Reproduction-inhibiting effect (azumanezasa; 0.1%, monosodium salt) was “+” and the Reproduction-inhibiting effect (azumanezasa; 0.2%) was “-”. For the same molecule, the Reproduction-inhibiting (Japanese prickly ash; 0.05%, monosodium salt) was “+++”, the Reproduction-inhibiting (Japanese prickly ash; 0.1%, monosodium salt) was “+” and the Reproduction-inhibiting (Japanese prickly ash; 0.2%) was “-”. The Reproduction-inhibiting (Japanese bush cranberry; 0.05%, monosodium salt) was “+++”, the Reproduction-inhibiting (Japanese bush cranberry; 0.1%, monosodium salt) was “+” and the Reproduction-inhibiting (Japanese bush cranberry; 0.2%) was “-”. The Killing index (kumaichigo; 0.25%, monosodium salt) was 4.5, the Reproduction-inhibiting effect (warunasubi; 0.05%, monosodium salt) was “+++” and the Reproduction-inhibiting effect (warunasubi; 0.1%, monosodium salt) was “+++”. The Reproduction-inhibiting effect (warunasubi; 0.2%, monosodium salt) was “+”, the Reproduction-inhibiting effect (water hyacinth; 0.1%, listed as SF-1293 monosodium salt, monosodium salt) was “+” and the Reproduction-inhibiting effect (water hyacinth; 0.2%) was “-”. The Killing index (water hyacinth; 0.2%, 21 days, listed as SF-1293 monosodium salt, monosodium salt) was 4.5, the Reproduction-inhibiting (kiichigo; 0.05%, monosodium salt) was “+++” and the Reproduction-inhibiting (kiichigo; 0.1%, monosodium salt) was “+”. The Reproduction-inhibiting (kiichigo; 0.2%) was “-”, the Reproduction-inhibiting effect (purple nutsedge; 0.05%, monosodium salt) was “+++” and the Reproduction-inhibiting effect (purple nutsedge; 0.1%, monosodium salt) was “+++”. For the same molecule, the Reproduction-inhibiting effect (purple nutsedge; 0.2%, monosodium salt) was “+”, the Reproduction-inhibiting effect (yabugarashi; 0.05%, monosodium salt) was “+++” and the Reproduction-inhibiting effect (yabugarashi; 0.1%, monosodium salt) was “++”. For the same molecule, the Reproduction-inhibiting effect (yabugarashi; 0.2%, monosodium salt) was “±”, the Reproduction-inhibiting effect (manna grass; 0.05%, monosodium salt) was “+++” and the Reproduction-inhibiting effect (manna grass; 0.1%, monosodium salt) was “++”. The Reproduction-inhibiting effect (manna grass; 0.2%, monosodium salt) was “±”, the Reproduction-inhibiting effect (hedge bindweed; 0.05%, monosodium salt) was “+++” and the Reproduction-inhibiting effect (hedge bindweed; 0.1%, monosodium salt) was “+++”. The Reproduction-inhibiting effect (hedge bindweed; 0.2%, monosodium salt) was “+++”, the Reproduction-inhibiting effect (chigaya; 0.1%, monosodium salt) was “++” and the Reproduction-inhibiting effect (chigaya; 0.2%) was “-”. The Reproduction-inhibiting effect (white clover; 0.05%, monosodium salt) was “+++”, the “Killing index of Upperground parts” value (white clover; 0.05%, monosodium salt) was 1.5 and the Reproduction-inhibiting effect (white clover; 0.1%, monosodium salt) was “+++”. The “Killing index of Upperground parts” value (white clover; 0.1%, monosodium salt) was 3.5, the Reproduction-inhibiting effect (white clover; 0.2%, monosodium salt) was “+” and the Reproduction-inhibiting (yamazakura; 0.05%, monosodium salt) was “+++”. For the same molecule, the Reproduction-inhibiting (yamazakura; 0.1%, monosodium salt) was “++”, the Reproduction-inhibiting (yamazakura; 0.2%) was “-” and the Reproduction-inhibiting effect (cockspar grass; 0.05%, monosodium salt) was “+++”. The Reproduction-inhibiting effect (cockspar grass; 0.1%, monosodium salt) was “++”, the Reproduction-inhibiting effect (cockspar grass; 0.2%, monosodium salt) was “±” and the Reproduction-inhibiting (lace shrub; 0.05%, monosodium salt) was “+++”. The Reproduction-inhibiting (lace shrub; 0.1%, monosodium salt) was “++”, the Reproduction-inhibiting (lace shrub; 0.2%) was “-” and the Reproduction-inhibiting (torch azalea; 0.05%, monosodium salt) was “+++”. The Reproduction-inhibiting (torch azalea; 0.1%, monosodium salt) was “++” and the Reproduction-inhibiting (torch azalea; 0.2%) was “-”.
